Test results published in patent US8887721B2, “Attenuation of vasoactive oxygen carrier-induced vasoconstriction” (The General Hospital Corporation, priority 2006, dated 2014).
Read-outs that look alike come from different tables or passages of the source.

What was measured:
plasma hemoglobin [1] = target: T1, plasma hemoglobin (Mus musculus, UniProt P01942+P02088); type: in vivo
T1 construct: The blood was frozen and thawed three times and then centrifuged; from tissue; host or cells: whole blood of wild type C57BL/6 mice (hemolysate, filtered, dialysed, concentrated)
T1 sequence (P01942 2-142 limits assumed): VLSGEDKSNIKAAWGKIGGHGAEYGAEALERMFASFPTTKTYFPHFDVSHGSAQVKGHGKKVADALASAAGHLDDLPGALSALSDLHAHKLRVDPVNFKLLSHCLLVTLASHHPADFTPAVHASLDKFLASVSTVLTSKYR
T1 sequence (P02088 2-147 limits assumed): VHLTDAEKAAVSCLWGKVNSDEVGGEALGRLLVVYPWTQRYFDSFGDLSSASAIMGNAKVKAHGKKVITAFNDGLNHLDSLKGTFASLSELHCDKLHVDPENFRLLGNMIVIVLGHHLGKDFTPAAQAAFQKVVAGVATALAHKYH
Experimental: Hemoglobin and methemoglobin concentration in whole blood and plasma were determined by the cyanomethemoglobin method measuring OD at 540 nm and 630 nm with a Spectrophotometer-Biomate 3 (Thermoelectron Corporation, Waltham, Mass.).
(§1) The effects of breathing nitric oxide on systolic tail blood pressure after the infusion of murine tetrameric hemoglobin solution were monitored every 10 minutes for the 1st hour and every 20 minutes for the rest of the experiments. Blood hemoglobin and methemoglobin levels were measured every 15 minutes in the nitric oxide pretreatment group, wherein all mice breathed nitric oxide at 80 ppm for 1 hour before infusion. Hemoglobin and methemoglobin levels in whole blood and plasma were measured in additional mice after the intravenous infusion of tetrameric hemoglobin solution at 10 minutes and 60 minutes while breathing nitric oxide at 8 ppm or 80 ppm throughout the experiment.

[2] = test system: anesthetized wild type and NOS3−/− mice; experiment: Invasive hemodynamic measurements in anesthetized mice; type: in vivo, mouse; details: for CO (cardiac output) / CVP (central venous pressure) / Ea (arterial elastance) / HR (heart rate) / LVEDP (left ventricular end-diastolic pressure) / LVESP (left ventricular end-systolic pressure) / SVR (systemic vascular resistance) / Tau (time constant of isovolumic relaxation) / dP/dtmax (maximum rate of developed left ventricular pressure) / dP/dtmin (minimum rate of developed left ventricular pressure): mean ± SEM
Experimental: To explore the mechanisms by which infusion of tetrameric hemoglobin causes systemic hypertension in awake wild type mice, invasive hemodynamic measurements were performed in anesthetized wild type and NOS3^−/− mice before and three minutes after infusion of murine tetrameric hemoglobin or whole murine blood as a control. Mice were anesthetized with an intraperitoneal injection of ketamine (100 mg/kg) and xylazine (5 mg/kg). Muscle relaxation was obtained by adding pancuronium (5 μg/g) after tracheal intubation. […] Two saline-filled PE-10 catheters were inserted separately via the jugular veins; one for monitoring central venous pressure (CVP) and the other for infusion of whole blood or tetrameric hemoglobin solution. A Millar pressure-volume catheter was inserted retrograde via the right carotid artery into the left ventricle (1.4F, model SPR839, Millar Instruments Inc., Houston, Tex.). After obtaining stable hemodynamic measurements, whole blood (1.44 g Hb/kg) or murine tetrameric Hb solution (0.48 g/kg) was infused through the jugular vein, at a rate of 100 μl/min for 3 min. PVAN software was used to analyze left ventricular pressure-volume loop data (Conductance Technologies Inc., San Antonio, Tex.).

plasma hemoglobin [3] = target: plasma hemoglobin (Bos taurus, UniProt P01966+P02070); experiment: Plasma methemoglobin concentration in awake lambs; type: in vivo, lamb
Chain of plasma hemoglobin (Bos taurus, UniProt P01966+P02070) (P01966 2-142 limits assumed): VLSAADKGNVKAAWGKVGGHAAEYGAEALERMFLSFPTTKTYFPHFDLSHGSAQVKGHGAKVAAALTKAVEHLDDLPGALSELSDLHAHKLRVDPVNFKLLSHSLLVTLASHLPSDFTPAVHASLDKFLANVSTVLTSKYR
Chain of plasma hemoglobin (Bos taurus, UniProt P01966+P02070) (P02070 whole entry): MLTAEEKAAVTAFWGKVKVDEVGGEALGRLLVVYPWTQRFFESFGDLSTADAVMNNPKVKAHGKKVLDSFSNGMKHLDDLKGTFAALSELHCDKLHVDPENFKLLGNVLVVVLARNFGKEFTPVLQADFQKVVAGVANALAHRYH
Source text: Lambs were briefly anesthetized, given a tracheostomy, the internal jugular vein was percutaneously catheterized and a flow directed Swan Ganz catheter passed into the pulmonary artery to permit measurements of central hemodynamics and cardiac output by thermaldilution. An arterial line was placed in the carotid artery. Animals were allowed several hours to awaken from anesthesia and were studied awake and restrained in a harness. […] Systemic vascular resistance (SVR) and pulmonary vascular resistance (PVR) were calculated using standard formulae as follows: [SVR ([…])=(MAP−CVP)/CO*79.96]; and [PVR ([…])=(PAP−PCWP)/CI*79.96].
Methemoglobin concentration in plasma was measured before and after breathing 80 ppm nitric oxide for one hour (and before and after infusion of autologous whole blood or HBOC-201). […]
Plasma methemoglobin concentration was measured before and after breathing nitric oxide at various concentrations (and before and after infusion of autologous whole blood or HBOC-201).

awake mice = experiment: Tail-cuff systolic blood pressure in awake mice; type: in vivo, mouse; details: for tail systolic blood pressure after intravenous injection: awake wild type mice, 0.012 ml/g body weight i.v.
Experimental: The mouse was placed in a restrainer for this procedure. All mice were handled briefly and gently to inject a tetrameric hemoglobin solution into a lateral tail vein. Before injection, the tail was warmed under an infra-red heat lamp for 5 minutes to enable access to the vein. The injection volume was 0.012 ml/g body weight for each mouse. Infusion was done during the course of one minute.
With the use of volumetrically calibrated flowmeters (Cole-Parmer, Vernon Hills, Ill.), nitric oxide gas (800 ppm in nitrogen; INO Therapeutics, Clinton, […], Clinton, N.J.). The nitric oxide, nitrogen dioxide and oxygen (21%) levels were continuously monitored (INOvent delivery system, Datex-Ohmeda, Madison, Wis.).
as §1
Systolic blood pressure was measured with a non-invasive tail-cuff machine (XBP 1000, Kent Scientific, Torrington, Conn.) in wild type mice and NOS3^−/− mice. Mice were first subjected to one or two practice sessions to acclimate them to the device. The mouse was placed in a restrainer for a short period of time (<1 minute to start), then kept in the restrainer for longer times to acclimate to the device. The degree of acclimatization was judged by the absence of agitation in the device. After a few days of practice sessions, mice were restrained in a commercial mouse restraint device (Kent Scientific, Torrington, Conn.). […]
All values are expressed as mean±SEM. Data were analyzed using ANOVA. The difference in hemodynamic parameters before and after infusion of murine tetrameric hemoglobin or nitric oxide inhalation was examined by a paired t-test for repeated measurements. P values less than 0.05 were considered significant (as indicated by a * in the figures).

awake lambs = type: in vivo, lamb
Source text: Lambs were briefly anesthetized, given a tracheostomy, the internal jugular vein was percutaneously catheterized and a flow directed Swan Ganz catheter passed into the pulmonary artery to permit measurements of central hemodynamics and cardiac output by thermaldilution. An arterial line was placed in the carotid artery. Animals were allowed several hours to awaken from anesthesia and were studied awake and restrained in a harness. Three groups of lambs were studied: (1) “autologous whole blood” animals donated autologous blood, which was stored with heparin anti-coagulation at 4° C.—two days later they received an infusion of their 37° C. autologous whole blood (12 ml/kg over 20 minutes) while breathing at FiO2=0.3 (n=3); (2) “HBOC-201” animals received an infusion of HBOC-201 (12 ml/kg over 20 minutes) while breathing at FiO2=0.3 (n=3); and (3) “HBOC-201 after iNO” animals inhaled 80 ppm nitric oxide at FiO2=0.3 for one hour before receiving an infusion of HBOC-201 (12 ml/kg over 20 minutes) (n=5). Systemic vascular resistance (SVR) and pulmonary vascular resistance (PVR) were calculated using standard formulae as follows: [SVR ([…])=(MAP−CVP)/CO*79.96]; and [PVR ([…])=(PAP−PCWP)/CI*79.96].
(1) “Autologous whole blood” animals received an infusion of 37° C. autologous whole blood (12 ml/kg over 20 minutes) while breathing at FiO2=0.3 (n=3); (2) “HBOC-201” animals received an infusion of 37° C. HBOC-201 (12 ml/kg over 20 minutes) while breathing at FiO2=0.3 (n=3); and (3) “HBOC-201 after high and low dose iNO” animals inhaled 80 ppm nitric oxide at FiO2=0.3 for one hour before receiving an infusion of HBOC-201 (12 ml/kg over 20 minutes), which was followed by breathing 5 ppm nitric oxide at FiO2=0.3 for two hours, which was followed by breathing at FiO2=0.3 (and discontinued inhalation of nitric oxide gas) for another one hour (n=4).

[4] = lambs breathing 80 ppm nitric oxide for one hour before HBOC-201, terminated immediately before infusion
[5] = lambs: 80 ppm nitric oxide one hour before HBOC-201, then 5 ppm after the infusion
[6] = NOS3−/− mice breathing air, three minutes after infusion
[7] = WT mice breathing air, three minutes after infusion
[8] = WT ± iNO: WT mice breathing 80 ppm NO in air for 15 min, NO discontinued, then infusion

## [N]=O [nitric oxide]
Plasma hemoglobin [1]; wild type mice breathing 80 ppm nitric oxide for one hour before infusion of murine tetrameric hemoglobin solution, terminated at infusion
  conversion of plasma hemoglobin to methemoglobin: < 5%
Plasma hemoglobin [1]; wild type mice breathing 80 ppm nitric oxide while given murine tetrameric hemoglobin solution, 10 and 60 minutes after injection
  conversion of plasma hemoglobin to methemoglobin: conversion of a significant proportion of plasma hemoglobin to inactive methemoglobin
[2]; wild type mice pretreated with inhaled nitric oxide at 80 ppm for 15 minutes
  increase of LVESP, LVEDP, SVR, Ea and τ induced by murine tetrameric hemoglobin infusion: abolished the increase of LVESP, LVEDP, SVR, Ea, and τ
Plasma hemoglobin [3]; 80 ppm nitric oxide for one hour before HBOC-201, terminated at infusion
  plasma methemoglobin compared to lambs that received HBOC-201 without nitric oxide: did not result in an increase in plasma methemoglobin
Plasma hemoglobin [3]; 80 ppm nitric oxide one hour before HBOC-201, then 5 ppm after the infusion
  plasma methemoglobin compared to animals that received HBOC-201 without nitric oxide: did not result in an increase in plasma methemoglobin
Awake mice; wild type mice breathing 80 ppm nitric oxide continuously before and subsequent to infusion of murine tetrameric hemoglobin solution
  hemoglobin-induced elevation in systolic blood pressure: prevented a hemoglobin-induced elevation in systolic blood pressure
Awake mice; wild type mice breathing 80 ppm nitric oxide for 15 minutes before infusion, terminated at infusion
  hemoglobin-induced elevation in systolic blood pressure: prevented a hemoglobin-induced elevation in systolic blood pressure
Awake mice; wild type mice breathing 80 ppm nitric oxide for one hour before infusion, terminated at infusion
  hemoglobin-induced elevation in systolic blood pressure: prevented a hemoglobin-induced elevation in systolic blood pressure
Awake mice; wild type mice breathing 200 ppm nitric oxide for 7 minutes before infusion, terminated at infusion
  hemoglobin-induced elevation in systolic blood pressure: prevented a hemoglobin-induced elevation in systolic blood pressure
Awake lambs; lambs administered HBOC-201
  pulmonary hypertension after inhalation of 5 ppm nitric oxide was abruptly discontinued: rebounded
Awake lambs; [4]
  increase in mean arterial pressure after HBOC-201 infusion: blocked the increase
  increase in pulmonary arterial pressure after HBOC-201 infusion: did not block the increase
  increase in pulmonary vascular resistance after HBOC-201 infusion: did not block the increase
  increase in systemic vascular resistance after HBOC-201 infusion: blocked the increase
Awake lambs; [5]
  increase in mean arterial pressure after HBOC-201 infusion: blocked the increase
  increase in pulmonary arterial pressure after HBOC-201 infusion: blocked the increase
  increase in pulmonary vascular resistance after HBOC-201 infusion: blocked the increase
  increase in systemic vascular resistance after HBOC-201 infusion: blocked the increase

## O=NO [sodium nitrite, Sodium nitrite]
Plasma hemoglobin [1]; mouse, in vivo
  plasma methemoglobin level: 10±2%
Awake mice; awake mice, 48 nmol sodium nitrite i.v. five minutes before hemoglobin (0.48 g/kg)
  systemic hypertension caused by subsequent infusion of murine tetrameric hemoglobin: blocked the systemic hypertension
Awake mice; awake mice, 48 nmol sodium nitrite via tail vein
  blood pressure before murine tetrameric hemoglobin was infused: did not alter blood pressure

## Tetrameric Hb: tetrameric hemoglobin solution (4 g/dl) prepared from lysed whole blood of wild type C57BL/6 mice
[2]; [6]
  CO (cardiac output): 9 ± 1 mL/min
  CVP (central venous pressure): 4 ± 0 mmHg
  Ea (arterial elastance): 8 ± 1 mmHg/μl
  HR (heart rate): 553 ± 18 bpm
  LVEDP (left ventricular end-diastolic pressure): 8 ± 2 mmHg
  LVESP (left ventricular end-systolic pressure): 117 ± 5 mmHg
  SVR (systemic vascular resistance): 15 ± 2 dynes*sec/cm^2
  Tau (time constant of isovolumic relaxation): 6 ± 1 ms
  dP/dtmax (maximum rate of developed left ventricular pressure): 13736 ± 606 mmHg/s
  dP/dtmin (minimum rate of developed left ventricular pressure): −12290 ± 620 mmHg/s
[2]; [7]
  CO (cardiac output): 10 ± 1 mL/min
  CVP (central venous pressure): 3 ± 0 mmHg
  Ea (arterial elastance): 9 ± 1 mmHg/μl
  HR (heart rate): 602 ± 12 bpm
  LVEDP (left ventricular end-diastolic pressure): 12 ± 1 mmHg
  LVESP (left ventricular end-systolic pressure): 158 ± 5 mmHg
  SVR (systemic vascular resistance): 16 ± 1 dynes*sec/cm^2
  Tau (time constant of isovolumic relaxation): 8 ± 1 ms
  dP/dtmax (maximum rate of developed left ventricular pressure): 12260 ± 750 mmHg/s
  dP/dtmin (minimum rate of developed left ventricular pressure): −10110 ± 640 mmHg/s
[2]; [8]
  CO (cardiac output): 12 ± 1 mL/min
  CVP (central venous pressure): 4 ± 0 mmHg
  Ea (arterial elastance): 5 ± 0 mmHg/μl
  HR (heart rate): 603 ± 20 bpm
  LVEDP (left ventricular end-diastolic pressure): 6 ± 1 mmHg
  LVESP (left ventricular end-systolic pressure): 101 ± 4 mmHg
  SVR (systemic vascular resistance): 8 ± 1 dynes*sec/cm^2
  Tau (time constant of isovolumic relaxation): 5 ± 0 ms
  dP/dtmax (maximum rate of developed left ventricular pressure): 11230 ± 750 mmHg/s
  dP/dtmin (minimum rate of developed left ventricular pressure): −10650 ± 430 mmHg/s
[2]; anesthetized NOS3−/− mice
  effect of infusion on invasive hemodynamic parameters: did not alter HR, LVESP, LVEDP, CO, dP/dtmax, dP/dtmin, SVR, Ea, τ, or CVP
[2]; anesthetized wild type mice
  effect of infusion on invasive hemodynamic parameters: increased LVESP, LVEDP, SVR, Ea, and τ and decreased CO without affecting dP/dtmax, dP/dtmin, or CVP
Awake mice
  tail systolic blood pressure after intravenous injection: significant increase in systolic blood pressure
Awake mice; listed as murine tetrameric hemoglobin solution
  tail systolic blood pressure after intravenous injection: significant elevation in blood pressure
Awake mice; solution containing 14.5% methemoglobin
  systemic blood pressure after infusion: caused systemic hypertension

## HBOC-201: a chemically cross-linked bovine hemoglobin formulated in a salt solution; Biopure
Awake lambs; in vivo
  mean arterial pressure after infusion: increase
  pulmonary arterial pressure after infusion: increase
  pulmonary vascular resistance after infusion: increase
  systemic vascular resistance after infusion: increase
